Read-outs that look alike come from different tables or passages of the source.
Experiments:
[1] = tested on: Ba/F3 cells expressing NTRK1 fusions; assay: MTS proliferation assay of Ba/F3 cells expressing NTRK1 fusions; type: cell-based; conditions: n=5, similar to Ba/F3 cells expressing ALK or ROS1 fusion constructs
From the text: (§1) The half maximal inhibitory concentration (IC50) values are listed (nM).

[2] = tested on: KM12 cells harboring the TPM3-NTRK1 fusion; assay: MTS proliferation assay of KM12 cells; type: cell-based
Description: KM12 cells harboring the TPM3-NTRK1 fusion were lysed following 5 h treatment with the indicated doses of inhibitors and subject to immunoblot analysis (n=3).
Proliferation of KM12 cells treated with the indicated drugs and doses were assayed for cell proliferation by MTS assay.

[3] = biological target: T1, TRKA (Homo sapiens, UniProt P04629); assay: Immunoblot of 293T cell lysates expressing TRKA-HA: TRKA and downstream signaling; type: cell-based; conditions: 293T cells, 1 μM, 5 hours, presence or absence of NGF
T1 construct: the inventors expressed full length TRKA in 293T cells; expressed in transfected cells; host or cells: 293T cells, transient transfection of pCDH-MCS1-EF1-puro carrying NTRK1-HA
T1 sequence (P04629 33-796): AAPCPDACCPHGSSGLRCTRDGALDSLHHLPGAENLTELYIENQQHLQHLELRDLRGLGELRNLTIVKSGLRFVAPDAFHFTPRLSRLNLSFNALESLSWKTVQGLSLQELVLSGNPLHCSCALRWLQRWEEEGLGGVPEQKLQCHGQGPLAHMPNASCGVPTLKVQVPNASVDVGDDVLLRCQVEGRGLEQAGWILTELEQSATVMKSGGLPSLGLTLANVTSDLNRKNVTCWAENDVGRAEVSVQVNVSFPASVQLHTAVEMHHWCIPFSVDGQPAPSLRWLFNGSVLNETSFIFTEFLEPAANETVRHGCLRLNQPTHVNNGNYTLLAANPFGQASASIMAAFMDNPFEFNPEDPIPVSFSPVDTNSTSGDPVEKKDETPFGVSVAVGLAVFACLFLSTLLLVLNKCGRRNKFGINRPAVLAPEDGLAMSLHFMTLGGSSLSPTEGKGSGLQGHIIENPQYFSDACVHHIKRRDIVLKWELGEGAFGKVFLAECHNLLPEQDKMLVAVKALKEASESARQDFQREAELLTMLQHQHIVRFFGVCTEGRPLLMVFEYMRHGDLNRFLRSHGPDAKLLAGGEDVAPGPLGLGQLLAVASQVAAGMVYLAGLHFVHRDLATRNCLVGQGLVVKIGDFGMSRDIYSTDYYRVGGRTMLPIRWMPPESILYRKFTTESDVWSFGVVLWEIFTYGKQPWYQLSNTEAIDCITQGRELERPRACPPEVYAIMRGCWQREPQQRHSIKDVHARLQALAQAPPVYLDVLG

[4] = tested on: ROS1 gene fusions; conditions: lung cancer patients harboring ROS1 gene fusions; cited from earlier work
[5] = tested on: Ba/F3 cells expressing NTRK1-MPRIP; assay: MTS proliferation assay of Ba/F3 cells expressing NTRK1-MPRIP; type: cell-based; conditions: n=5
From the text: as §1

[6] = biological target: T1, TRKA; assay: Immunoprecipitation of TRKA-HA from 293T cells and anti-phosphotyrosine immunoblot; type: cell-based; conditions: 293T cells, 1 μM, 5 hours, vs DMSO control
[7] = tested on: CUTO-3 cells harboring the NTRK1-MPRIP gene fusion; assay: Immunoblot analysis of CUTO-3 cells; type: cell-based
From the text: Colorado University Thoracic Oncology (CUTO) 3 cells were derived from a pleural effusion from the index patient harboring the NTRK1-MPRIP gene fusion.

Structure (SMILES) | inhibition of cell proliferation of Ba/F3 expressing NTRK1 fusions [1] | inhibition of proliferation of KM12 cells ([2]; MTS assay) | phosphorylation of ERK [3] | phosphorylation of TRKA (phosphotyrosine 490, 674, 675) [3] | patient response [4] | inhibition of proliferation [5] | phosphorylation of AKT [3] | Phosphorylation of TRKA (anti-phosphotyrosine 4G10 after HA immunoprecipitation) [6] | inhibition of pERK [7] | inhibition of pTRKA [7] | inhibition of proliferation of KM12 cells [2]
C[C@@H](Oc1cc(-c2cnn(C3CCNCC3)c2)cnc1N)c1c(Cl)ccc(F)c1Cl [crizotinib] | inhibition | inhibited | decreased phosphorylation | decreased phosphorylation | respond | – | – | – | – | – | –
C[C@]12O[C@H](C[C@]1(O)CO)n1c3ccccc3c3c4c(c5c6ccccc6n2c5c31)CNC4=O [CEP-701] | – | inhibited | inhibited phosphorylation | inhibited phosphorylation | – | inhibition of proliferation | inhibited phosphorylation | significantly reduced | – | – | –
O=C(Nc1cnn2ccc(N3CCC[C@@H]3c3cc(F)ccc3F)nc12)N1CC[C@H](O)C1 [ARRY-470] | – | – | – | – | – | inhibition of proliferation | – | – | inhibition | inhibition | inhibited
